SMILES strings stand for the structures. Where a name gives a salt, the structure may show the parent alone.

Broadly, the melting point is the temperature of the solid-liquid transition. For the compound `N#Cc1cnc(N)cc1S[C@H](CCN)c1ccno1.O=C(O)/C=C/C(=O)O` [Example 14, 6-Amino-4-[[(1R)-3-amino-1-(5-isoxazolyl)propyl]thio]-3-pyridinecarbonitrile (E)-butenedioate], the melting point was 160 to 163 °C. As to `Cc1ccc(C#N)c(OC(CCN)c2ccns2)n1.O=C(O)C(=O)O` (stereo not drawn) [Example 22, 2-[3-Amino-1-(5-isothiazolyl)propoxy]-6-methyl-3-pyridinecarbonitrile Ethanedioate], the melting point was 175 to 177 °C.

The compound `Cc1cc([C@@H](CCN)Oc2nc(C(F)(F)F)ccc2C#N)no1` [Example 24, 2-[[(1R)-3-Amino-1-(5-methyl-3-isoxazolyl)propyl]oxy]-6-(trifluoromethyl)-3-peridinecarbonitrile Ethanedioate] yielded a melting point of 163 to 165 °C. In the case of `COc1cc(S[C@H](CCN)c2ccno2)c(C#N)cn1.O=C(O)/C=C/C(=O)O` [Example 16, 4-[[(1R)-3-Amino-1-(5-isoxazolyl)propyl]thio]-6-methoxy-3-pyridinecarbonitrile (E)-butenedioate], the melting point was in the range of 152 to 153 °C.

`COc1cc(S[C@H](CCN)c2ccno2)c(Cl)cn1` (as salt: salt) [Example 15, γ-[(5-Chloro-2-methoxy-4-pyridinyl)thio]-(γ^5R)-5-isoxazolepropanamine (E)-butenedioate] registered a melting point of 142 to 143 °C. Consider `Cc1ccc(C#N)c(SC(CCN)c2ccns2)n1.O=C(O)C(=O)O` (stereo not drawn) [Example 21, 2-[[3-Amino-1-(5-isothiazolyl)propyl]thio]-6-methyl-3-pyridinecarbonitrile Ethanedioate], for which the melting point was in the range of 103 to 104 °C.

`Cc1ccc(C#N)c(S[C@H](CCN)c2ccno2)n1` [Example 6, 2-[[(1R)-3-Amino-1-(5-isoxazolyl)propyl]thio-6-methyl-3-pyridinecarbonitrile Ethanedioate]: the melting point lay within 165 to 167 °C.

`N#Cc1ccc(C(F)(F)F)nc1O[C@H](CCN)c1cc(Cl)no1.O=C(O)/C=C/C(=O)O` [Example 18, 2-[[(1R)-3-Amino-1-(3-chloro-5-isoxazolyl)propyl]oxy]-6-(trifluoromethyl)-3-pyridinecarbonitrile (E)-butenedioate]: the melting point fell in the range of 151 to 152 °C. `Cl.N#Cc1ccc(C(F)(F)F)nc1O[C@H](CCN)c1nccs1` [Example 12, 2-[[(1R)-3-Amino-1-(2-thiazolyl)propyl]oxy]-6-(trifluoromethyl)-3-pyridinecarbonitrile Hydrochloride] gave a melting point of 151 to 153 °C. On to `N#Cc1ccc(C(F)(F)F)nc1O[C@H](CCN)c1ccon1.O=C(O)/C=C/C(=O)O` [Example 11, 2-[[(1R)-3-Amino-1-(3-isoxazolyl)propyl]oxy]-6-(trifluoromethyl)-3-pyridinecarbonitrile (E)-butenedioate], for which the melting point is 160 to 161 °C. Take `Cc1ccc(C#N)c(SC(CCN)c2nocc2C)n1.O=C(O)C(=O)O` (stereo not drawn) [Example 26, 2-[[3-Amino-1-(4-methyl-3-isoxazolyl)propyl]thio]-6-methyl-3-pyridinecarbonitrile Ethanedioate]: the melting point was in the range of 132 to 134 °C. The result for `Cc1cc(SC(CCN)c2scnc2Cl)c(C#N)cn1.O=C(O)/C=C/C(=O)O` (stereo not drawn) [Example 28, 4-[[3-Amino-1-(4-chloro-5-thiazolyl)propyl]thio]-6-methyl-3-pyridinecarbonitrile (E)-butenedioate] reads 180 to 181 °C; that for `Cc1ccc(C#N)c(S[C@H](CCN)c2cc(Cl)no2)n1.O=C(O)/C=C/C(=O)O` [Example 19, 2-[[(1R)-3-Amino-1-(3-chloro-5-isoxazolyl)propyl]thio]-6-methyl-3-pyridinecarbonitrile (E)-butenedioate], 186 to 187 °C; that for `COc1cc(O[C@H](CCN)c2ccon2)c(C#N)cn1.O=C(O)C(=O)O` [Example 25, 4-[[(1R)-3-Amino-1-(3-isoxazolyl)propyl]oxy]-6-methoxy-3-pyridinecarbonitrile Ethanedioate], 173 to 174 °C. The result for `N#Cc1ccc(C(F)(F)F)nc1OC(CCCN)c1ccno1.O=C(O)/C=C/C(=O)O` (stereo not drawn) [Example 42, 2-[4-Amino-1-(5-isoxazolyl)butoxy]-6-(trifluoromethyl)-3-pyridinecarbonitrile (E)-butenedioate] reads 155 to 157 °C.

The values are drawn from patent US20040176422A1, “Heteroarylheteroalkylamine derivatives and their use as inhibitors of nitric oxide synthase” (priority 2001, published 2004).
